Two compounds from US12606556B2, “TYK-2 inhibitor” (BEIGENE, LTD., priority 2020, dated 2026) can be followed below.

Test [1] has as its system JAK1/p-STAT3(Tyr705) activated by IL-6 in TF-1 cell line. Description: IL-6-JAK1/p-STAT3(Tyr705) inhibition cellular assay. It is filed as cell-based. As to conditions: Homo sapiens, 0.5 h; TF-1 cells, IL-6 50 ng/ml, 30 min; read-out: Cellular assay pSTAT3/IL-6 IC50.
Test [2] concerns the target T1, JAK1-JH2 protein (aa 561-860, in-house) (Homo sapiens, UniProt P23458).
T1 construct: JAK1-JH2 protein (aa 561-860, in-house); made in house
The experiment in a line: JAK1-JH2 biochemical assay (HTRF, blocking of JAK1-JH2 protein with its probe). As to conditions: 1.17 nM recombinant JAK1-JH2, Probe 2. It is filed as binding. The procedure, abridged: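 HTRF probe-displacement assay using recombinant human JAK1 pseudokinase domain (aa 561-860, 1.17 nM in pre-incubation step), pre-incubated 0.5 h at room temperature with 10-dose 5-fold compound series. Buffer: 20 mM HEPES pH 7.5, 10 mM MgCl2, 0.005% BSA, 2 mM DTT, 0.015% Brij-35. IC50 by four-parameter logistic fit of 615/665 nm ratio.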

In test [3] the target is T2, TYK2-JH2 (aa 575-869, in-house) protein (Homo sapiens, UniProt P29597).
T2 construct: TYK2-JH2 (aa 575-869, in-house) protein; made in house
T2 sequence (P29597 575-869): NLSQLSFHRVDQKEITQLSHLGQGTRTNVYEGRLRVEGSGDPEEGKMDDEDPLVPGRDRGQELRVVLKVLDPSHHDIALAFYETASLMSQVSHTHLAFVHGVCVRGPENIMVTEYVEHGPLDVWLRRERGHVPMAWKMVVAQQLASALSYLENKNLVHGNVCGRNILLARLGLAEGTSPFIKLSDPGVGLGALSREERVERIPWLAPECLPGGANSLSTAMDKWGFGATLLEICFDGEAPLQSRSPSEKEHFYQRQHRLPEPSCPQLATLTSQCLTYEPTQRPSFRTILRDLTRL
Description: TYK2-JH2 biochemical assay (HTRF, blocking of TYK2-JH2 protein with its probe). It is filed as binding. As to conditions: for IC50: HTRF, 0.2 nM recombinant TYK2-JH2, Probe 1; for Biochemical assay Selectivity fold (TYK2/JAK1): TYK2-JH2 vs JAK1-JH2 biochemical IC50. In short, it runs like this: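 Recombinant TYK2-JH2 (0.2 nM) pre-incubated with compounds (10 doses, 5-fold dilutions) 0.5 h at RT in HEPES pH 7.5 buffer with MgCl2, BSA, DTT, Brij-35; biotinylated probe (10 nM working solution, KD=10 nM) plus anti-6His Tb cryptate/streptavidin-XL665 added, 1 h RT. HTRF ratio read; IC50 from four-parameter logistic fit.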
A general note: Time-resolved FRET reads energy transfer from a long-lived donor to a nearby acceptor.

The subject of test [4] is JAK2, TYK2/p-STAT4 (Tyr693) activated by IL-12 in NK-92 cell line. Description: IL-12-JAK2, TYK2/p-STAT4 (Tyr693) inhibition cellular assay. It is filed as cell-based. As to conditions: for IC50: NK92, 0.5 h, NK-92 cells, IL-12 40 ng/ml, 30 min, read-out: Cellular assay pSTAT4/IL-12 IC50; for Cellular assay Selectivity fold (TYK2/JAK1): pSTAT4/IL-12 vs pSTAT3/IL-6 cellular IC50. The procedure, abridged:
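NK-92 cells were starved overnight without IL-2 and seeded at 5×10^4 per well in 1640 medium with 0.1% BSA. Lysate p-STAT4 (Tyr693) was measured by AlphaLISA SureFire, and IC50 was fitted with a 4-parameter logistic model.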

T1 sequence (P23458 561-860): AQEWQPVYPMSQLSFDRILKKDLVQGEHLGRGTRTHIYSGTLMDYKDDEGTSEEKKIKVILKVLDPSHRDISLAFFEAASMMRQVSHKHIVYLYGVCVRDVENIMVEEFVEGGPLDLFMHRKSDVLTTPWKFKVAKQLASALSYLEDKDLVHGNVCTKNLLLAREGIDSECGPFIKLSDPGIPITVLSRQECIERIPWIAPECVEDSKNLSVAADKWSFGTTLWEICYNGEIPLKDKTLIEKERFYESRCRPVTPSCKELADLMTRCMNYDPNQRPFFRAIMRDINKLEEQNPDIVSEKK

Turning to `CNC(=O)c1nnc(NC(=O)C2CC2)cc1Nc1nc2ccc(N3CCC(C4CN(C)C4)CC3)cn2n1` [Example P1, 6-(cyclopropanecarboxamido)-N-methyl-4-((6-(4-(1-methylazetidin-3-yl)piperidin-1-yl)-[1,2,4]triazolo[1,5-a]pyridin-2-yl)amino)pyridazine-3-carboxamide], the IC50 in test [1] was greater than 10000 nM; in test [2], 1.4 nM; in test [3], 0.039 nM; in test [4] it was 29 nM. In test [3], the “Biochemical assay Selectivity fold (TYK2/JAK1)” value amounted to 36 fold. In addition, the “Cellular assay Selectivity fold (TYK2/JAK1)” value in test [4] was greater than 344 fold.

`CNC(=O)c1nnc(NC(=O)C2CC2)cc1Nc1nc2ccc(N3CC(C(=O)N4CCSC4)C3)cn2n1` [Example Q1, 6-(cyclopropanecarboxamido)-N-methyl-4-((6-(3-(thiazolidine-3-carbonyl)azetidin-1-yl)-[1,2,4]triazolo[1,5-a]pyridin-2-yl)amino)pyridazine-3-carboxamide]: the IC50 in test [1] was greater than 10000 nM; in test [2], 2.18 nM; in test [3], 0.16 nM; in test [4] it was 157 nM. In test [3], the “Biochemical assay Selectivity fold (TYK2/JAK1)” value was determined as 14 fold. For the same compound, in test [4], the “Cellular assay Selectivity fold (TYK2/JAK1)” value is greater than 64 fold.
